Measurements taken from ChEMBL document CHEMBL4673260, “Pyridine alkaloids with activity in the central nervous system” (Bioorg Med Chem, 2020).

Experiments:
Acetylcholinesterase [1] = target: T1, Acetylcholinesterase (Homo sapiens, UniProt P22303); experiment: Inhibition of human erythrocyte acetylcholinesterase using acetylthiocholine as substrate preincubated for 20 mins followed by substrate addition and measured every 30 secs for 1 hr by Ellman's method
Rattus norvegicus [2] = experiment: Antihypertensive activity in spontaneously hypertensive rat assessed as reduction in blood pressure at 50 mg/kg, po measured after 5 hr relative to control; type: functional; parameters: scale not given: the % may be the effect or the level left
Rattus norvegicus [3] = experiment: Antihypertensive activity in spontaneously hypertensive rat assessed as reduction in blood pressure at 50 mg/kg, po measured after 1 hr relative to control; type: functional; parameters: scale not given: the % may be the effect or the level left
[4] = Toxicity in ip dosed mouse; type: organism-based; details: in vivo
Rattus norvegicus [5] = experiment: Antihypertensive activity in spontaneously hypertensive rat assessed as reduction in blood pressure at 50 mg/kg, po measured after 3 hrs relative to control; type: functional; parameters: scale not given: the % may be the effect or the level left
Acetylcholinesterase [6] = target: Acetylcholinesterase (Electrophorus electricus, UniProt O42275)
[7] = target: Neuronal acetylcholine receptor; alpha3/beta4 (Rattus norvegicus, UniProt P04757+P12392); experiment: Agonist activity at rat alpha3beta4 nAChR expressed in Xenopus laevis oocytes; type: cell-based, Oocyte
[8] = target: T2, Neuronal acetylcholine receptor subunit alpha-7 (Rattus norvegicus, UniProt Q05941); experiment: Agonist activity at rat alpha7 nAChR expressed in Xenopus laevis oocytes; type: cell-based, Oocyte
T2 sequence (Q05941 whole entry): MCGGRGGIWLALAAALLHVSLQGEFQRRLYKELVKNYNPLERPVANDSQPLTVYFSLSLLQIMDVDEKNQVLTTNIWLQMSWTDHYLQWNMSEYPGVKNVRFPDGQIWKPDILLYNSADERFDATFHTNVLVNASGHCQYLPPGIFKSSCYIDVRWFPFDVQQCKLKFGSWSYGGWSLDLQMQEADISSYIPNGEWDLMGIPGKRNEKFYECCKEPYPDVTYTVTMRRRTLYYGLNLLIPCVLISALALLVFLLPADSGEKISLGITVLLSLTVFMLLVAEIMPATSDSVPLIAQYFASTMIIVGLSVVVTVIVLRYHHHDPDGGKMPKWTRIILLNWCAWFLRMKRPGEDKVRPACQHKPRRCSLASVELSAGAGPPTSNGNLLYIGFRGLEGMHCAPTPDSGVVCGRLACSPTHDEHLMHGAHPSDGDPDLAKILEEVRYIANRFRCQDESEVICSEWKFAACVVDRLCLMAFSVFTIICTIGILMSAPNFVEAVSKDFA

[9] = target: T3, Neuronal acetylcholine receptor; alpha4/beta2 (Homo sapiens, UniProt P17787+P43681); experiment: Agonist activity at human brain alpha4beta2 nAChR expressed in CHO cells assessed as maximal receptor response by patch clamp electrophysiological assay relative to control; type: cell-based
T3 sequence (P17787 whole entry): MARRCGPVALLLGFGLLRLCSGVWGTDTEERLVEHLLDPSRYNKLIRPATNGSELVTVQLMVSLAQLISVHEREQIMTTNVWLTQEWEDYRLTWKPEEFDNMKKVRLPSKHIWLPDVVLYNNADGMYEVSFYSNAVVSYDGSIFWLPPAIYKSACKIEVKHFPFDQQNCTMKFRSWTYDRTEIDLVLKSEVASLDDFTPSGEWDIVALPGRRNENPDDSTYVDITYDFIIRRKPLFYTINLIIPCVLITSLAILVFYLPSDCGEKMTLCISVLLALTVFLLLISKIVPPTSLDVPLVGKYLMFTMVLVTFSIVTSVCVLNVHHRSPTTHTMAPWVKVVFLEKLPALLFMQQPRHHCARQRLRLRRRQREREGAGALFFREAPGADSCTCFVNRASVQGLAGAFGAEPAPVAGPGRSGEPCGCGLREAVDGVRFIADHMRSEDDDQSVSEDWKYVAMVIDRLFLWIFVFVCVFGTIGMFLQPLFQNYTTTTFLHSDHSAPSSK
T3 sequence (P43681 whole entry): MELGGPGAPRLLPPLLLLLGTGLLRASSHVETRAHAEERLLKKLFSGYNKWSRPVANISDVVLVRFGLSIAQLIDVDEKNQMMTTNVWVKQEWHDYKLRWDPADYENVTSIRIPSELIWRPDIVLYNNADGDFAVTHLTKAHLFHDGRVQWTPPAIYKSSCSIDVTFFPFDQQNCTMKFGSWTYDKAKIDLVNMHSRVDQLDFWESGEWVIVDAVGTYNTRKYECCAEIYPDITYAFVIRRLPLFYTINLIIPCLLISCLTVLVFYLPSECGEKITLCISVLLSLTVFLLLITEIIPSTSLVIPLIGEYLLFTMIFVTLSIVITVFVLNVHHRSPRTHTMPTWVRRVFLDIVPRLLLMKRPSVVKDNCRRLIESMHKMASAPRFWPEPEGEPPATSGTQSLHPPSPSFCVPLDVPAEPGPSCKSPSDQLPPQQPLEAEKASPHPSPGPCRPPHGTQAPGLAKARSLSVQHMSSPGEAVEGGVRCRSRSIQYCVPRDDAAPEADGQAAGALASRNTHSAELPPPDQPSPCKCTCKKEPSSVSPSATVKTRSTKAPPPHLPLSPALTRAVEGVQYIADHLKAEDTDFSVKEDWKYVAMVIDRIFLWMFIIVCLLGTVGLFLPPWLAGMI

[10] = target: T3, Neuronal acetylcholine receptor; alpha4/beta2
Description: Agonist activity at human brain alpha4beta2 nAChR expressed in CHO cells by patch clamp electrophysiological assay

[11] = target: T3, Neuronal acetylcholine receptor; alpha4/beta2; experiment: Potency index, ratio of nicotine EC50 to compound EC50 for human brain alpha4beta2 nAChR expressed in CHO cells; type: cell-based
[12] = target: T3, Neuronal acetylcholine receptor; alpha4/beta2; experiment: Potency index, ratio of nicotine I-max to compound I-max for human brain alpha4beta2 nAChR expressed in CHO cells; type: cell-based
[13] = target: Dopamine beta-hydroxylase (Bos taurus, UniProt P15101); experiment: Inhibition of bovine adrenal medulla DBH incubated for 25 mins
[14] = In vivo inhibition of DBH in rat assessed as norepinephrine expression in rat brain at 100 mg/kg, ip administered as single dose measured after 3 hrs by spectrophotofluorometric analysis (reference value: 0.22 ug/g); type: functional, organism-based
[15] = target: T4, Dopamine beta-hydroxylase (Bos taurus) (UniProt P15101); experiment: Inhibition of bovine adrenal medulla DBH at 1 uM relative to control
T4 sequence (whole entry): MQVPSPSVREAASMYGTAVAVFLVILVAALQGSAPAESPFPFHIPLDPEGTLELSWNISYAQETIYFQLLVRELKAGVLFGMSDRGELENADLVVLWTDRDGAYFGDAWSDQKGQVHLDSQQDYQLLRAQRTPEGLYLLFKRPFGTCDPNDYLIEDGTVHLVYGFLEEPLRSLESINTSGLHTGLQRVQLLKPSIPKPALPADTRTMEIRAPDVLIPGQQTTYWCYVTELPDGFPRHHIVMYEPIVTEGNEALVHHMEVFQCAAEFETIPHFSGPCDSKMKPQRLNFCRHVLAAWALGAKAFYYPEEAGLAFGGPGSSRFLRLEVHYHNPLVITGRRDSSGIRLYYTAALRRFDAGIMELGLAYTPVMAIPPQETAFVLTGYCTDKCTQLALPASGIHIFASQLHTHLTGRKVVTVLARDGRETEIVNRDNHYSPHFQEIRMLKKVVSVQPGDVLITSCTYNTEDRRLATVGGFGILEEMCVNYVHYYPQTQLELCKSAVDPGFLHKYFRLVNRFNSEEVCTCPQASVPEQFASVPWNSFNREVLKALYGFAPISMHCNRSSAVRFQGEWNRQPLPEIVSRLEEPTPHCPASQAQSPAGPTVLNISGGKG

[16] = target: T4, Dopamine beta-hydroxylase (Bos taurus); experiment: Inhibition of bovine adrenal medulla DBH at 0.5 uM relative to control
[17] = In vivo inhibition of DBH in rat assessed as norepinephrine expression in rat brain at 100 mg/kg, ip administered as single dose measured after 3 hrs by spectrophotofluorometric analysis (reference value: 0.42 ug/g); type: functional, organism-based
[18] = target: T4, Dopamine beta-hydroxylase (Bos taurus); experiment: Inhibition of bovine adrenal medulla DBH at 0.05 uM relative to control
[19] = In vivo inhibition of DBH in human assessed as reduction in 3-methoxy-4-hydroxy-phenylglycol level in cerebrospinal fluid at 1.12g administered for 10 to 20 days; type: functional; details: time 10-20 day
[20] = target: T4, Dopamine beta-hydroxylase (Bos taurus); experiment: Inhibition of bovine adrenal medulla DBH at 0.005 uM relative to control
Rattus norvegicus [21] = organism: Rattus norvegicus; experiment: Antagonist activity at nAChR in Sprague-Dawley rat striatum assessed as inhibition of nicotine-evoked [3H] dopamine release at 100 nM relative to control; type: tissue-based
[22] = target: T5, Neuronal acetylcholine receptor; alpha4/beta2 (Rattus norvegicus, UniProt P09483+P12390); experiment: Inhbition of [3H] nicotine binding to rat brain alpha4beta2 nAChR by Cheng-Prusoff equation analysis
T5 sequence (P09483 whole entry): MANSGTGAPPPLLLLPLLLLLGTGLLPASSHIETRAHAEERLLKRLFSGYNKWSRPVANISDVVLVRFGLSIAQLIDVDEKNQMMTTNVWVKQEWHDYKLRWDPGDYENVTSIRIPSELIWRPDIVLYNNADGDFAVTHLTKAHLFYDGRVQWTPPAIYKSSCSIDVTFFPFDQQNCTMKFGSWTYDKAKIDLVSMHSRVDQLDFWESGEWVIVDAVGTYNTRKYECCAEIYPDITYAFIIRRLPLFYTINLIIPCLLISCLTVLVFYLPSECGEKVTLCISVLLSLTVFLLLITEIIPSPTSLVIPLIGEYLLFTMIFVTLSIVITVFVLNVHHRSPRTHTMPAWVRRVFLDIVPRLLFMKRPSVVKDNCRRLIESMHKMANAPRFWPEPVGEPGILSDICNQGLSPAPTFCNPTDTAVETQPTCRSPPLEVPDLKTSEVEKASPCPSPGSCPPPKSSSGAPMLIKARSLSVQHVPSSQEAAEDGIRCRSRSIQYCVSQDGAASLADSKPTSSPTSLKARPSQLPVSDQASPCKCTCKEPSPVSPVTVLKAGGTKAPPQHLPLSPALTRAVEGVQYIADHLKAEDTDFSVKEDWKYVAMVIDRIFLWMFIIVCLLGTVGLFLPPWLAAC
T5 sequence (P12390 whole entry): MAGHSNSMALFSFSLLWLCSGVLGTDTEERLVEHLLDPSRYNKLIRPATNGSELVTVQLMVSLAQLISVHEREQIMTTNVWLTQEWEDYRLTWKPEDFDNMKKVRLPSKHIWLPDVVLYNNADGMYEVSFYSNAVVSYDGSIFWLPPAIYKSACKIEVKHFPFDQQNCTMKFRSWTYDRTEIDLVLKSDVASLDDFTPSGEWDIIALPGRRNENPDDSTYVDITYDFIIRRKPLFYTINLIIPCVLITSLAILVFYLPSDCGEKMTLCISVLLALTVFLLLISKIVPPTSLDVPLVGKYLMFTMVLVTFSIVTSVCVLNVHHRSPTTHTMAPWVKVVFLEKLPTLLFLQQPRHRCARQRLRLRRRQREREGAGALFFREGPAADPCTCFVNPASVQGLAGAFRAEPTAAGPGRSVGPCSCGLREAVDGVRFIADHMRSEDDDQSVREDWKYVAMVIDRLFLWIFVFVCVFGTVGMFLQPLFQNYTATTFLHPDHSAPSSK

Mus musculus [23] = experiment: Anti-analeptic activity in mouse assessed as reduction in corazol-induced convulsion at 25 mg/kg relative to control; type: functional; parameters: scale not given: the % may be the effect or the level left
Mus musculus [24] = experiment: Anti-analeptic activity in mouse assessed as reduction in convulsion at 125 to 150 mg/kg coadministered with camphor relative to control; type: functional; parameters: scale not given: the % may be the effect or the level left; details: dose 125-150 mg/kg
[25] = Protection against strychnine-induced mortality in mouse at 100 mg/kg; type: ADME, organism-based; details: in vivo
Mus musculus [26] = experiment: Anti-analeptic activity in mouse assessed as reduction in lethality at 125 to 150 mg/kg coadministered with camphor relative to control; type: functional; parameters: scale not given: the % may be the effect or the level left; details: dose 125-150 mg/kg
[27] = Protection against caffeine-induced mortality in mouse at 250 mg/kg; type: ADME, organism-based; details: in vivo
Mus musculus [28] = experiment: Anti-analeptic activity in mouse assessed as reduction in corazol-induced convulsion at 75 mg/kg relative to control; type: functional; parameters: scale not given: the % may be the effect or the level left
[29] = Toxicity in ip dosed albino rat; type: organism-based; details: in vivo
Rattus norvegicus [30] = experiment: Protection against pentylenetetrazol-induced convulsion in rat at 50 to 100 mg/kg, ip relative to control; type: functional; details: dose 50-100 mg/kg
Mus musculus [31] = organism: Mus musculus; experiment: Antiaggressive activity in mouse assessed as reduction in foot shock induced fighting behavior; type: functional; parameters: scale not given: the % may be the effect or the level left
Mus musculus [32] = organism: Mus musculus; experiment: Antipsychotic activity in albino mouse assessed as potentiation of hexobarbital-induced sleeping time; type: functional
Mus musculus [33] = organism: Mus musculus; experiment: Antipsychotic activity in trained mouse assessed as reduction in ability of mouse to remain on rotating rod; type: functional
Rattus norvegicus [34] = organism: Rattus norvegicus; experiment: Potentiation of morphine-induced analgesia in rat relative to control; type: functional
Rattus norvegicus [35] = organism: Rattus norvegicus; experiment: Potentiation of diphenylhydantoin-induced anticonvulsant activity in rat relative to control; type: functional
Mus musculus [36] = organism: Mus musculus; experiment: Antipsychotic activity in mouse assessed as reduction in amphetamine-induced toxicity; type: functional; parameters: scale not given: the % may be the effect or the level left
[37] = target: T5, Neuronal acetylcholine receptor; alpha4/beta2
[38] = target: T2, Neuronal acetylcholine receptor subunit alpha-7
Description: Displacement of [3H]MLA from rat alpha7 nAChR by liquid scintillation counting

PC-12 [39] = experiment: Induction of neurite outgrowth in rat PC-12 cells at 33 uM incubated for 24 hrs by phase contrast microscopic analysis relative to control; type: functional
PC-12 [40] = experiment: Induction of neurite outgrowth in rat PC-12 cells at 10 uM incubated for 24 hrs by phase contrast microscopic analysis relative to control; type: functional
PC-12 [41] = experiment: Induction of neurite outgrowth in rat PC-12 cells at 3.3 uM incubated for 24 hrs by phase contrast microscopic analysis relative to control; type: functional
Cholinesterase [42] = target: Cholinesterase (Homo sapiens, UniProt P06276); experiment: Inhibition of BuChE (unknown origin)
Cholinesterase (Homo sapiens, UniProt P06276), sequence (P06276 whole entry): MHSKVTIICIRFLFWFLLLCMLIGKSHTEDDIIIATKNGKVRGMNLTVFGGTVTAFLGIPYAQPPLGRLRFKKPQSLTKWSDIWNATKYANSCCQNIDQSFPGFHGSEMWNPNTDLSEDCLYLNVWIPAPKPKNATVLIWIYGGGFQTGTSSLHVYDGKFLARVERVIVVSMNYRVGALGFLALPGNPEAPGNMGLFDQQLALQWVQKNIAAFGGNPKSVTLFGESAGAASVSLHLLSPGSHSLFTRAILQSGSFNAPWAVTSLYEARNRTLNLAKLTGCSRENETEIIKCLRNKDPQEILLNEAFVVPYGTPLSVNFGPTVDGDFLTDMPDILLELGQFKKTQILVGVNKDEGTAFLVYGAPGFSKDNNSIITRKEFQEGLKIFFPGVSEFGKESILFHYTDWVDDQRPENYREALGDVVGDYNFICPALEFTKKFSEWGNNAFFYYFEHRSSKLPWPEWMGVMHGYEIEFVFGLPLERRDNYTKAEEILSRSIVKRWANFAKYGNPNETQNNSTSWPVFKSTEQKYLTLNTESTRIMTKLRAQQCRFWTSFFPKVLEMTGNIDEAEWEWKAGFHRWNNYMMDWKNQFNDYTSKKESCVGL

Acetylcholinesterase [43] = target: T1, Acetylcholinesterase
Cholinesterase [44] = target: Cholinesterase (Equus caballus, UniProt P81908); experiment: Inhibition of horse serum BuChE by Ellman's colorimetric method
Cholinesterase (Equus caballus, UniProt P81908), sequence (P81908 whole entry): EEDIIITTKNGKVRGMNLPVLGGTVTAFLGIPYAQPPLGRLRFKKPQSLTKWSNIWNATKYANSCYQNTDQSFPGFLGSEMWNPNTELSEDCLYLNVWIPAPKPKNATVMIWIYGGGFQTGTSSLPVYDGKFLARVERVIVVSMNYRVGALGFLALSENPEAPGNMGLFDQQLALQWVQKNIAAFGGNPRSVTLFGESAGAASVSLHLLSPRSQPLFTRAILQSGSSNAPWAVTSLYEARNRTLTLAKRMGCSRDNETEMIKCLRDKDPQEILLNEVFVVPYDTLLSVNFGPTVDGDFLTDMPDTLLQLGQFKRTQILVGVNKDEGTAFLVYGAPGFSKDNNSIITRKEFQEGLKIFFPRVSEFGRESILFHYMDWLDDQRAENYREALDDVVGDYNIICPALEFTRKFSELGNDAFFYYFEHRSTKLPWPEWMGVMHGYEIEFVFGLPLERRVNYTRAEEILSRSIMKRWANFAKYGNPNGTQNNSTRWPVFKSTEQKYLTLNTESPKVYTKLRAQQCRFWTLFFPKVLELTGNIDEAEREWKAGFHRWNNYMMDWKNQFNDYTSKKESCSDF

[45] = Selectivity ratio of Ki for horse serum BuChE to Ki for human erythrocyte acetylcholinesterase
Acetylcholinesterase [46] = target: T1, Acetylcholinesterase; experiment: Inhibition of human erythrocyte acetylcholinesterase using acetylthiocholine as substrate by Ellman's colorimetric method
[47] = Neuroprotective activity against glutamate-induced cell death in rat forebrain derived neurons assessed as neuron death at 100 nM incubated for 45 mins (reference value: 55%); type: functional; details: 0.75 h
[48] = Neuroprotective activity against Bay-K8644-induced calcium mobilization in rat forebrain derived neurons assessed as calcium elevation at 100 nM (reference value: 521 nM); type: functional, Neuron
[49] = Toxicity in male rat; details: in vivo
[50] = Neuroprotective activity against glutamate-induced calcium mobilization in rat forebrain derived neurons assessed as calcium elevation at 100 nM (reference value: 811 nM); type: functional, Neuron
[51] = Toxicity in female rat; details: in vivo
[52] = Neuroprotective activity against NMDA-induced cell death in rat neurons assessed as cell survival pretreated for 45 mins followed by NMDA stimulation and measured after 30 mins by MTT assay (reference value: […]%); type: functional, Neuron; details: time 75 min; 1.25 h
[53] = target: T3, Neuronal acetylcholine receptor; alpha4/beta2; experiment: Potency index, ratio of nicotine IC50 to test compound IC50 for Displacement of [3H]cytisine from human alpha4beta2 nAChR by radioligand competition analysis; type: protein-complex assay
[54] = target: T3, Neuronal acetylcholine receptor; alpha4/beta2; remark: listed apart in the source
[55] = target: T3, Neuronal acetylcholine receptor; alpha4/beta2; remark: listed apart in the source
[56] = target: T3, Neuronal acetylcholine receptor; alpha4/beta2; experiment: Potency index, ratio of nicotine Ki to test compound Ki for Displacement of [3H]cytisine from human alpha4beta2 nAChR by Cheng-Prusoff equation analysis; type: protein-complex assay
[57] = target: T2, Neuronal acetylcholine receptor subunit alpha-7; experiment: Displacement of 125I-alpha-bungarotoxin from rat brain alpha7 nAChR by radioligand binding assay
[58] = target: T2, Neuronal acetylcholine receptor subunit alpha-7; experiment: Agonist activity at rat brain alpha7 nAChR
[59] = Toxicity in iv dosed Swiss-Webster mouse by up-and-down method; type: organism-based; details: in vivo

T1 sequence (P22303 whole entry): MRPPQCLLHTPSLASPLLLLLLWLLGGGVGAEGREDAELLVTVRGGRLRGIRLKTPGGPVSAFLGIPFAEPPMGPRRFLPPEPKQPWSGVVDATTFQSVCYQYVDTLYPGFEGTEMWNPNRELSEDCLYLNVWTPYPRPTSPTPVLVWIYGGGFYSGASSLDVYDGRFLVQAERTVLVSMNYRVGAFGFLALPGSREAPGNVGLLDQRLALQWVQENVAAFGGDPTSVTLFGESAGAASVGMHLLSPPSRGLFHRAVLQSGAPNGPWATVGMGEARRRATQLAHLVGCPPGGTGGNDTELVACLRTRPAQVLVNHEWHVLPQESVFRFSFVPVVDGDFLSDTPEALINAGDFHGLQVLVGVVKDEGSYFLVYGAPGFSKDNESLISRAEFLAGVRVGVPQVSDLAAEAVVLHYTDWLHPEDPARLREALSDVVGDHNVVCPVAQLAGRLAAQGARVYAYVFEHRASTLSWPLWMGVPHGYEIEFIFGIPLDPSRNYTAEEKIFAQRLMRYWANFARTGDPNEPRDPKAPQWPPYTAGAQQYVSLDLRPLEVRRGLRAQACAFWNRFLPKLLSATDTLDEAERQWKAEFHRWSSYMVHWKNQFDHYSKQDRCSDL

C/C=C1\C2C=C(C)CC1(NCC(=O)OC)c1ccc(=O)[nH]c1C2 (centres undefined)
IC50 (Acetylcholinesterase [1]): 6.71 µM

O=C(O)c1ccc(Cc2ccc(O)cc2)cn1
Activity (Rattus norvegicus [2]): 23% | Activity (Rattus norvegicus [3]): 21% | LD50 [4]: 350 mg/kg | Activity (Rattus norvegicus [5]): 16%

C=CC1C2C=C(CO)CC1(N)c1ccc(=O)[nH]c1C2 (centres undefined)
IC50 (Acetylcholinesterase [6]): 23.9 µM

c1cncc([C@@H]2CCCN2)c1 [NORNICOTINE]
EC50 [7]: 614 µM | EC50 [8]: 17.4 µM

CN1CC=CC[C@H]1c1cccnc1
Imax [9]: 26% | EC50 [10]: 6.2 µM | Ratio EC50 [11]: 8 | Ratio [12]: 6

CCCCc1ccc(C(=O)O)nc1 [FUSARIC ACID]
IC50 [13]: 0.05 µM | IC50 [14]: 0.1 µg/g | inhibition [15]: 92% | inhibition [16]: 89% | IC50 [17]: 0.4 µg/g | inhibition [18]: 58% | inhibition (INH) [19]: 25% | inhibition [20]: 20%

CN1CCC[C@H]1c1cncc([C@@H]2CCCN2C)c1
inhibition (Rattus norvegicus [21]): < 64% | Ki [22]: 1.18 µM

COc1c2c(nc3occc13)[C@@](CC=C(C)C)(OC)[C@H](O)CC2
Activity (Mus musculus [23]): 50% | Activity (Mus musculus [24]): 50% | Activity [25]: 100% | Activity (Mus musculus [26]): 100% | Activity [27]: 80% | Activity (Mus musculus [28]): 100%

C=Cc1cncc2c1CCOC2=O
LD50 [29]: 276 mg/kg | Activity (Rattus norvegicus [30]): 70% | Activity (Mus musculus [31]): 60% | Activity (Mus musculus [32]): 80% | Activity (Mus musculus [33]): 80% | Activity (Rattus norvegicus [34]): 150% | Activity (Rattus norvegicus [35]): 60% | Activity (Mus musculus [36]): 88%

O=c1c(O)ccc2n1CC1CNC2C1 (centres undefined)
Ki [37]: 14 µM | Ki [38]: 260 µM

CC[C@@H](C)C[C@@H](C)/C=C(C)/C=C/C=C/C(=O)c1c(O)c(C2(O)CCC(O)CC2)cn(O)c1=O (some centres undefined)
Activity (PC-12 [39]): 80% | Activity (PC-12 [40]): 70% | Activity (PC-12 [41]): 30%

CC1=C[C@@H]2Cc3[nH]c(=O)ccc3[C@]3(C1)NCCC[C@H]23
IC50 (Cholinesterase [42]): 169 µM | IC50 (Acetylcholinesterase [43]): 2.57 µM

CN1CCCC[C@H]1c1ccc(-c2cccnc2)nc1
Ki (Cholinesterase [44]): 440 µM | Ratio Ki [45]: 8.6 | Ki (Acetylcholinesterase [46]): 51 µM

C/C=C1\[C@H]2C=C(C)C[C@]1(N)c1ccc(=O)[nH]c1C2 [HUPERZINE A]
Activity [47]: 30% | Activity [48]: 505 nM | LD50 [49]: > 4 mg/kg | Activity [50]: 668 nM | LD50 [51]: 2 mg/kg | Activity [52]: 85%

C[C@@H]1CC2C3Cn4c(cccc4=O)C(CN2C)C31 (some centres undefined)
Ratio IC50 [53]: 5 | IC50 [54]: 0.00096 µM | Ki [55]: 0.00032 µM | Ratio Ki [56]: 5

c1cncc([C@@H]2CCCCN2)c1 [ANABASINE]
Ki [57]: 0.39 µM | EC50 [58]: 18 µM | LD50 [59]: 16 mg/kg
